Measurements from patent US11802120B2, “Fused cyclic urea derivatives as CRHR2 antagonist” (RaQualia Pharma Inc., priority 2018, dated 2023).

Target: T1, human CRHR2-alpha (Homo sapiens, UniProt Q13324)
T1 sequence (Q13324 1-411): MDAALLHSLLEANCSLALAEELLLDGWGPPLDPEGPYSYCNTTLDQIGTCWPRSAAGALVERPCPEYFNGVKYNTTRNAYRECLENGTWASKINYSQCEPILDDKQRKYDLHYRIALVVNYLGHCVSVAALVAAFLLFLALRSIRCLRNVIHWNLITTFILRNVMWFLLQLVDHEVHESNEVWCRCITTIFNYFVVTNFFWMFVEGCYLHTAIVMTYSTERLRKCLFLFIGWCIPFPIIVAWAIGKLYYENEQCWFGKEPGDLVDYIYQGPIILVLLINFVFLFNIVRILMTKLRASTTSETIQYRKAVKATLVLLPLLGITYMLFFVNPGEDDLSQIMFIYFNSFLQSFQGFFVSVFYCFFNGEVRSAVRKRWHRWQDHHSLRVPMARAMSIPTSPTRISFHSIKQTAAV
Assay: cAMP functional assay for human CRHR2 (LANCE Ultra cAMP, TR-FRET)
Type: cell-based
Conditions: CHO-K1 cells expressing human CRHR2-alpha, agonist human urocortin2 at EC80, cAMP; read-out: IC50 against CRHR2
Protocol: cAMP functional assay for human CRHR1 and CRHR2
The ability of the compounds of this invention to inhibit either CRHR2 or CRHR1 is assessed by 3′,5′-cyclic adenosine monophosphate (cAMP) production in cells using the LANCE Ultra cAMP assay kit (ParkinElmer), which are designed based on the homogeneous time-resolved fluorescence resonance energy transfer (TR-FRET) immunoassay.
CHO-K1 (Chinese hamster ovary) cells stably expressing either human CRHR2-alpha (DiscoveRX, Cat. 95-0048C2) or human CRHR1-beta (DiscoveRX, Cat. 95-0047C2) are grown in HAM's F12 media supplemented with 10% fetal bovine serum (FBS), 100 units/mL penicillin, 100 microg/mL hygromycin and 0.5 microg/mL geneticin at 37° C. in 5% CO2 humidified incubator to 80% confluence. After 7 hours starvation treatment in culture media containing 0.1% FBS, the cells are washed with Hanks balanced salt solution (HBSS) and cryopreserved.
For cAMP assay, frozen cells are thawed and washed with HBSS, followed by resuspended in assay buffer (HBSS containing 0.1% bovine serum albumin, 0.5 mM isobutylmethylxanthine and 5 mM Hepes, pH 7.4) at the appropriate concentration for the assay. The cell suspensions are plated on 384-well microplates (Greiner Bio-One) at a density of 4,000 cells per well. After preincubating the cells with various concentrations of the compounds for 30 min at 25° C., an assay buffer containing EC80 concentration of each agonist is added and the cells are incubated for 30 min at 25° C. Human urocortin2 (Peptide Institute) and CRF (Peptide Institute) are used as agonists for CRHR2 and CRHR1, respectively. For the termination of assay, europium-labeled cAMP tracer and ULight (registered trademark) dye labeled cAMP antibodies, both prepared with Lance-Ultra cAMP detection reagent (Perkin Elmer) are added in the plate and incubate for 60 min at 25° C. After incubation, TR-FRET signal is detected by EnVision plate reader (PerkinElmer). The IC50 values for compounds are calculated from dose-response curves by fitting the percent inhibition using XLfit (ID Business Solutions).

IC50, < 300 nM:
COc1cc(-n2c(=O)n(C[C@H]3CC[C@H](NC(=O)c4cc(Cl)cnc4C)CC3)c3ccccc32)cnc1OC [Example 118, 5-chloro-N-((1r,4r)-4-((3-(5,6-dimethoxypyridin-3-yl)-2-oxo-2,3-dihydro-1H-benzo[d]imidazol-1-yl)methyl)cyclo-hexyl)-2-methylnicotinamide]
CNC(=O)c1ccc(-n2c(=O)n(C[C@H]3CC[C@H](NC(=O)c4cc(Cl)cnc4C(F)F)CC3)c3ccccc32)c(C)n1 [Example 556, 5-(3-(((1r,4r)-4-(5-chloro-2-(difluoromethyl)nicotina-mido)cyclohexyl)methyl)-2-oxo-2,3-dihydro-1H-benzo[d]imidazol-1-yl)-N,6-dimethylpicolinamide]
Cc1ncc(Cl)cc1C(=O)N[C@H]1CC[C@H](Cn2c(=O)n(-c3ccc4c(C(=O)N(C)C)noc4c3)c3ccccc32)CC1 [Example 245, 6-(3-(((1r,4r)-4-(5-chloro-2-methylnicotinamido)cyclohexyl)methyl)-2-oxo-2,3-dihydro-1H-benzol[d]imidazol-1-yl)-N,N-dimethylbenzo[d]isoxazole-3-carboxamide]
Cc1cc(-n2c(=O)n(C[C@H]3CC[C@H](NC(=O)c4cc(Cl)cnc4C)CC3)c3ccccc32)c(C)cn1 [Example 336, 5-chloro-N-((1r,4r)-4-((3-(2,5-dimethylpyridin-4-yl)-2-oxo-2,3-dihydro-1H-benzo[d]imidazol-1-yl)methyl)cyclohexyl)-2-methylnicotinamide]
Cc1ncc(Cl)cc1C(=O)N[C@H]1CC[C@H](Cn2c(=O)n(-c3ccc4[nH]nc(C)c4c3)c3ccccc32)CC1 [Example 170, 5-chloro-2-methyl-N-((1r,4r)-4-((3-(3-methyl-1H-indazol-5-yl)-2-oxo-2,3-dihydro-1H-benzo[d]imidazol-1-yl)methyl)cyclohexyl)nicotinamide]
O=C(N[C@H]1CC[C@H](Cn2c(=O)n(Cc3ccccn3)c3ccccc32)CC1)c1cc(Cl)cnc1C(F)(F)F [Example 282, 5-chloro-N-((1r,4r)-4-((2-oxo-3-(pyridin-2-ylmethyl)-2,3-dihydro-1H-benzo[d]imidazol-1-yl)methyl)cyclohexyl)-2-(trifluoromethyl)nicotinamide]
Cc1ncc(Cl)cc1C(=O)N[C@H]1CC[C@H](Cn2c(=O)n(-c3ccc4c(Cl)n[nH]c4c3)c3ccccc32)CC1 [Example 210, 5-chloro-N-((1r,4r)-4-((3-(3-chloro-1H-indazol-6-yl)-2-oxo-2,3-dihydro-1H-benzo[d]imidazol-1-yl)methyl)cyclohexyl)-2-methylnicotinamide]
Cc1ccc(-n2c(=O)n(C[C@H]3CC[C@H](NC(=O)c4cc(Cl)cnc4C)CC3)c3ccccc32)cc1CO [Example 127, 5-chloro-N-((1r,4r)-4-((3-(3-(hydroxymethyl)-4-methylphenyl)-2-oxo-2,3-dihydro-1H-benzo[d]imidazol-1-yl)methyl)cyclo-hexyl)-2-methylnicotinamide]
Cc1ncc(Cl)cc1C(=O)N[C@H]1CC[C@H](Cn2c(=O)n(-c3cccc4ncccc34)c3ccccc32)CC1 [Example 345, 5-chloro-2-methyl-N-((1r,4r)-4-((2-oxo-3-(quinolin-5-yl)-2,3-dihydro-1H-benzo[d]imidazol-1-yl)methyl)cyclo-hexyl)nicotinamide]
Cc1ncc(Cl)cc1C(=O)N[C@H]1CC[C@H](Cn2c(=O)n(-c3ccnc(N4CCOCC4)c3)c3ccccc32)CC1 [Example 519, 5-chloro-2-methyl-N-((1r,4r)-4-((3-(2-morpholinopyridin-4-yl)-2-oxo-2,3-dihydro-1H-benzo[d]imidazol-1-yl)methyl)cyclohexyl)nicotinamide]
CCc1ccc(-n2c(=O)n(C[C@H]3CC[C@H](NC(=O)c4cc(Cl)cnc4C)CC3)c3ccccc32)cn1 [Example 72, 5-chloro-N-((1r,4r)-4-((3-(6-ethylpyridin-3-yl)-2-oxo-2,3-dihydro-1H-benzo[d]imidazol-1-yl)methyl)cyclohexyl)-2-methylnicotinamide]
Cc1ncc(Cl)cc1C(=O)N[C@H]1CC[C@H](Cn2c(=O)n(-c3ccc(-n4nccn4)nc3)c3ccccc32)CC1 [Example 512, N-((1r,4r)-4-((3-(6-(2H-1,2,3-triazol-2-yl)pyridin-3-yl)-2-oxo-2,3-dihydro-1H-benzo[d]imidazol-1-yl)methyl)cyclohexyl)-5-chloro-2-methylnicotinamide]
O=C(N[C@H]1CC[C@H](Cn2c(=O)n(-c3cccc(N4CCNC4=O)n3)c3ccccc32)CC1)c1cc(Cl)cnc1C(F)F [Example 773, 5-chloro-2-(difluoromethyl)-N-((1r,4r)-4-((2-oxo-3-(6-(2-oxoimidazolidin-1-yl)pyridin-2-yl)-2,3-dihydro-1H-benzo [d]imidazol-1-yl)methyl)cyclo-hexyl)nicotinamide]
Cc1ncc(Cl)cc1C(=O)N[C@H]1CC[C@H](Cn2c(=O)n(-c3cccc4nccn34)c3ccccc32)CC1 [Example 350, 5-chloro-N-((1r,4r)-4-((3-(imidazo[1,2-a]pyridin-5-yl)-2-oxo-2,3-dihydro-1H-benzo [d]imidazol-1-yl)methyl)cyclohexyl)-2-methylnico-tinamide]
O=C(N[C@H]1CC[C@H](Cn2c(=O)n(-c3ccc4ncccc4c3)c3ccccc32)CC1)c1cc(Cl)cnc1C(F)F [Example 392, 5-chloro-2-(difluoromethyl)-N-((1r,4r)-4-((2-oxo-3-(quinolin-6-yl)-2,3-dihydro-1H-benzo[d]imidazol-1-yl)methyl)cyclohexyl)nicotinamide]
Cc1ncc(Cl)cc1C(=O)N[C@H]1CC[C@H](Cn2c(=O)n(-c3ccc(-c4nccs4)cc3)c3ccccc32)CC1 [Example 518, 5-chloro-2-methyl-N-((1r,4r)-4-((2-oxo-3-(4-(thiazol-2-yl)phenyl)-2,3-dihydro-1H-benzo [d]imidazol-1-yl)methyl)cyclo-hexyl)nicotinamide]
Cc1ncc(Cl)cc1C(=O)N[C@H]1CC[C@H](Cn2c(=O)n(-c3cncc(-c4cnn(C)c4)c3)c3ccccc32)CC1 [Example 679, 5-chloro-2-methyl-N-((1r,4r)-4-((3-(5-(1-methyl-1H-pyrazol-4-yl)pyridin-3-yl)-2-oxo-2,3-dihydro-1H-benzo[d]imidazol-1-yl)methyl)cyclohexyl) nicotinamide]
Cc1ccc(-n2c(=O)n(C[C@H]3CC[C@H](NC(=O)c4cc(Cl)cnc4C)CC3)c3ccc(F)cc32)cn1 [Example 122, 5-chloro-N-((1r,4r)-4-((5-fluoro-3-(6-methylpyridin-3-yl)-2-oxo-2,3-dihydro-1H-benzo[d]imidazol-1-yl)methyl)cyclo-hexyl)-2-methylnicotinamide]
Cc1ncc(Cl)cc1C(=O)N[C@H]1CC[C@H](Cn2c(=O)n(CC(=O)c3ccc(C#N)cc3)c3ccccc32)CC1 [Example 13, 5-chloro-N-((1r,4r)-4-((3-(2-(4-cyanophenyl)-2-oxoethyl)-2-oxo-2,3-dihydro-1H-benzo[d]imidazol-1-yl)methyl)cyclohexyl)-2-methylnicotinamide]
Cc1ncc(Cl)cc1C(=O)N[C@H]1CC[C@H](Cn2c(=O)n(-c3ccc(C(=O)Nc4cc[nH]n4)nc3)c3ccccc32)CC1 [Example 183, 5-(3-(((1r,4r)-4-(5-chloro-2-methylnicotinamido)cyclo-hexyl)methyl)-2-oxo-2,3-dihydro-1H-benzo[d]imidazol-1-yl)-N-(1H-pyrazol-3-yl) picolinamide]
Cc1ccc(-n2c(=O)n(C[C@H]3CC[C@H](NC(=O)c4cc(Cl)cnc4C(F)(F)F)CC3)c3ccccc32)c(C)n1 [Example 315, 5-chloro-N-((1r,4r)-4-((3-(2,6-dimethylpyridin-3-yl)-2-oxo-2,3-dihydro-1H-benzo [d]imidazol-1-yl)methyl)cyclohexyl)-2-(trifluoro-methyl)nicotinamide]
